Laboratory results from patent publication US20050261169A1, “Peptide and peptide mimetic derivatives having integrin inhibitor properties III” (priority 2003, published 2005).

Test system: mouse MC3T3 E1 osteoblast cultures
Assay: Cell adhesion test on RGD-peptide-coated titanium surfaces
Type: cell-based
Settings: 50,000 cells/cm^2 seeded, one hour in serum-free medium at 37° C.; FIG. 2; compared with JAU311003, all concentrations measured
Description: Ti or TiAl6V4 moldings having a diameter of 10 mm and a height of 1-2 mm are cleaned.
The moldings are transferred into 48-well plates (Costar, “non-tissue culture treated” Art. No. 3574). For bonding of the bioactive, cell adhesion-promoting molecules B (where B can be a cyclopeptide, peptide mimetic or linear peptide) to the prepared moldings, stock solutions containing B molecules (“B solutions”) are prepared in a final concentration of 1 mM in an aqueous buffer. Concentration series with the “B solution” final concentrations of 1 nM, 10 nM, 100 nM, 1 μM, 10 μM and 100 μM in each case are subsequently prepared by dilution with buffer. The moldings are covered with 250 μl of the respective B solutions in each case and subsequently incubated at room temperature for 18-24 hours. For removal of unbound B molecules, the samples are washed three times with buffer and stored in buffer overnight. […]
The adhesion of mouse MC3T3 E1 osteoblast cultures to RGD-peptide-coated titanium surfaces in vitro was investigated. 50,000 cells/cm^2 were seeded, and the proportion of adhered cells was determined after incubation for one hour in serum-free medium at 37° C./95% atmospheric humidity. • Cell adhesion rate [%]=adhered cells/seeded cells×100 • Peptide: cell adhesion rate [%] • The results can be found in the figures.

Question: “cyclo(Arg-Gly-Asp-D-Phe-Lys(^εNH—[CO—(CH2)5—NH]3—(CO—C6H3(CH2PO3H2)2)) [CD 135]” was tested. Which Cell adhesion rate did it give?
Answer: higher cell adhesion rate for all concentrations measured
